Results reported in PubChem BioAssay AID1963846 (Molecular Pharmacology Branch, DTP, NCI, 2024).

Test system: 454973-116-R2-J3-PDC complex spheroid viability
Test: Anticancer human tumor 454973-116-R2-J3-PDC patient-derived pancreatic carcinoma cell line growth inhibition [POLQ]
Conditions: for IC50: curve of first compound; for viability, T/C: stronger effect = lower value
Outline: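 Growth inhibition in 3D: complex spheroids (tumor PDC, HUVEC, MSC) treated with POLQ inhibitor combinations; where Cmax unknown, highest tested concentration 10 microM, except SN-38 at 1 microM.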

[1] = second compound 0.0316 µM, first compound 0.0316 µM
[2] = second compound 0.0316 µM, first compound 0.1 µM
[3] = second compound 0.0316 µM, first compound 0.316 µM
[4] = second compound 0.0316 µM, first compound 1 µM
[5] = second compound 0.0316 µM, first compound 3.16 µM
[6] = second compound 0.0316 µM, first compound 10 µM
[7] = second compound 0.1 µM, first compound 0.0316 µM
[8] = second compound 0.1 µM, first compound 0.1 µM
[9] = second compound 0.1 µM, first compound 0.316 µM
[10] = second compound 0.1 µM, first compound 1 µM
[11] = second compound 0.1 µM, first compound 3.16 µM
[12] = second compound 0.1 µM, first compound 10 µM
[13] = second compound 0.316 µM, first compound 0.0316 µM
[14] = second compound 0.316 µM, first compound 0.1 µM
[15] = second compound 0.316 µM, first compound 0.316 µM
[16] = second compound 0.316 µM, first compound 1 µM
[17] = second compound 0.316 µM, first compound 3.16 µM
[18] = second compound 0.316 µM, first compound 10 µM
[19] = second compound 1 µM, first compound 0.0316 µM
[20] = second compound 1 µM, first compound 0.1 µM
[21] = second compound 1 µM, first compound 0.316 µM
[22] = second compound 1 µM, first compound 1 µM
[23] = second compound 1 µM, first compound 3.16 µM
[24] = second compound 1 µM, first compound 10 µM
[25] = second compound 3.16 µM, first compound 0.0316 µM
[26] = second compound 3.16 µM, first compound 0.1 µM
[27] = second compound 3.16 µM, first compound 0.316 µM
[28] = second compound 3.16 µM, first compound 1 µM
[29] = second compound 3.16 µM, first compound 3.16 µM
[30] = second compound 3.16 µM, first compound 10 µM
[31] = second compound 10 µM, first compound 0.0316 µM
[32] = second compound 10 µM, first compound 0.1 µM
[33] = second compound 10 µM, first compound 0.316 µM
[34] = second compound 10 µM, first compound 1 µM
[35] = second compound 10 µM, first compound 3.16 µM
[36] = second compound 10 µM, first compound 10 µM
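Also: spheroids exposed to drugs for seven days before measurement.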
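For viability, T/C in this document: percent viability relative to DMSO vehicle control wells taken as 100%.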

SMILES: CC(C)n1c(=O)n(C)c2cnc3cc(F)c(-c4ccc(OCCCN5CCCCC5)nc4)cc3c21 + Nc1ccc(C#CCN(C(=O)Cc2ncc(C(F)(F)F)cc2C(F)(F)F)c2ccc(F)cc2)nn1
- IC50 (second compound 0.0316 µM): > 10 µM
- IC50 (second compound 0.1 µM): > 10 µM
- IC50 (second compound 0.316 µM): > 10 µM
- IC50 (second compound 1 µM): > 10 µM
- IC50 (second compound 3.16 µM): > 10 µM
- IC50 (second compound 10 µM): > 10 µM
- viability, T/C [1]: 101%
- viability, T/C [2]: 96%
- viability, T/C [3]: 101%
- viability, T/C [4]: 96.7%
- viability, T/C [5]: 102%
- viability, T/C [6]: 75.8%
- viability, T/C [7]: 99.3%
- viability, T/C [8]: 100%
- viability, T/C [9]: 103%
- viability, T/C [10]: 115%
- viability, T/C [11]: 99.6%
- viability, T/C [12]: 76.1%
- viability, T/C [13]: 102%
- viability, T/C [14]: 102%
- viability, T/C [15]: 117%
- viability, T/C [16]: 103%
- viability, T/C [17]: 101%
- viability, T/C [18]: 83.8%
- viability, T/C [19]: 114%
- viability, T/C [20]: 106%
- viability, T/C [21]: 108%
- viability, T/C [22]: 114%
- viability, T/C [23]: 106%
- viability, T/C [24]: 74.7%
- viability, T/C [25]: 111%
- viability, T/C [26]: 113%
- viability, T/C [27]: 105%
- viability, T/C [28]: 114%
- viability, T/C [29]: 101%
- viability, T/C [30]: 83.8%
- viability, T/C [31]: 123%
- viability, T/C [32]: 107%
- viability, T/C [33]: 114%
- viability, T/C [34]: 114%
- viability, T/C [35]: 104%
- viability, T/C [36]: 76.9%

SMILES: CCc1cc2c(N3CCc4c(cc(Cn5ccnc5)cc4-c4cn(C)nc4C(F)(F)F)C3=O)cc(C)nc2c(OC)n1 + COC1C(OC(N)=O)C(O)C(Oc2ccc3c(O)c(NC(=O)c4ccc(O)c(CC=C(C)C)c4)c(=O)oc3c2C)OC1(C)C
- IC50 (second compound 0.0316 µM): > 10 µM
- IC50 (second compound 0.1 µM): > 10 µM
- IC50 (second compound 0.316 µM): > 10 µM
- IC50 (second compound 1 µM): > 10 µM
- IC50 (second compound 3.16 µM): > 10 µM
- IC50 (second compound 10 µM): > 10 µM
- viability, T/C [1]: 111%
- viability, T/C [2]: 93.7%
- viability, T/C [3]: 91.5%
- viability, T/C [4]: 87.9%
- viability, T/C [5]: 87.2%
- viability, T/C [6]: 75.1%
- viability, T/C [7]: 94.1%
- viability, T/C [8]: 107%
- viability, T/C [9]: 95.2%
- viability, T/C [10]: 91.2%
- viability, T/C [11]: 81%
- viability, T/C [12]: 71%
- viability, T/C [13]: 101%
- viability, T/C [14]: 103%
- viability, T/C [15]: 91.8%
- viability, T/C [16]: 94.1%
- viability, T/C [17]: 83.6%
- viability, T/C [18]: 73.2%
- viability, T/C [19]: 110%
- viability, T/C [20]: 95%
- viability, T/C [21]: 105%
- viability, T/C [22]: 98%
- viability, T/C [23]: 84.7%
- viability, T/C [24]: 76.3%
- viability, T/C [25]: 109%
- viability, T/C [26]: 102%
- viability, T/C [27]: 93.9%
- viability, T/C [28]: 88.2%
- viability, T/C [29]: 85.9%
- viability, T/C [30]: 70.3%
- viability, T/C [31]: 103%
- viability, T/C [32]: 90.5%
- viability, T/C [33]: 89.6%
- viability, T/C [34]: 85.3%
- viability, T/C [35]: 84%
- viability, T/C [36]: 67.6%

SMILES: Cn1ncnc1[C@H]1c2n[nH]c(=O)c3cc(F)cc(c23)N[C@@H]1c1ccc(F)cc1 + Cc1cccc(N(C)C(=O)C2C(O)CCN2c2nc(C)cc(C(F)(F)F)c2C#N)c1
- IC50 (second compound 0.0316 µM): > 0.1 µM
- IC50 (second compound 0.1 µM): > 0.1 µM
- IC50 (second compound 0.316 µM): > 0.1 µM
- IC50 (second compound 1 µM): > 0.1 µM
- IC50 (second compound 3.16 µM): > 0.1 µM
- IC50 (second compound 10 µM): > 0.1 µM
- viability, T/C (second compound 0.0316 µM, first compound 0.000316 µM): 109%
- viability, T/C (second compound 0.0316 µM, first compound 0.001 µM): 97%
- viability, T/C (second compound 0.0316 µM, first compound 0.00316 µM): 91.8%
- viability, T/C (second compound 0.0316 µM, first compound 0.01 µM): 96.1%
- viability, T/C [1]: 108%
- viability, T/C [2]: 89.6%
- viability, T/C (second compound 0.1 µM, first compound 0.000316 µM): 106%
- viability, T/C (second compound 0.1 µM, first compound 0.001 µM): 100%
- viability, T/C (second compound 0.1 µM, first compound 0.00316 µM): 95.6%
- viability, T/C (second compound 0.1 µM, first compound 0.01 µM): 97.2%
- viability, T/C [7]: 94.3%
- viability, T/C [8]: 90.1%
- viability, T/C (second compound 0.316 µM, first compound 0.000316 µM): 102%
- viability, T/C (second compound 0.316 µM, first compound 0.001 µM): 104%
- viability, T/C (second compound 0.316 µM, first compound 0.00316 µM): 98.5%
- viability, T/C (second compound 0.316 µM, first compound 0.01 µM): 97.6%
- viability, T/C [13]: 98.5%
- viability, T/C [14]: 85.2%
- viability, T/C (second compound 1 µM, first compound 0.000316 µM): 110%
- viability, T/C (second compound 1 µM, first compound 0.001 µM): 102%
- viability, T/C (second compound 1 µM, first compound 0.00316 µM): 103%
- viability, T/C (second compound 1 µM, first compound 0.01 µM): 105%
- viability, T/C [19]: 91.7%
- viability, T/C [20]: 91.4%
- viability, T/C (second compound 3.16 µM, first compound 0.000316 µM): 105%
- viability, T/C (second compound 3.16 µM, first compound 0.001 µM): 119%
- viability, T/C (second compound 3.16 µM, first compound 0.00316 µM): 103%
- viability, T/C (second compound 3.16 µM, first compound 0.01 µM): 108%
- viability, T/C [25]: 97.2%
- viability, T/C [26]: 85.6%
- viability, T/C (second compound 10 µM, first compound 0.000316 µM): 107%
- viability, T/C (second compound 10 µM, first compound 0.001 µM): 96%
- viability, T/C (second compound 10 µM, first compound 0.00316 µM): 97.5%
- viability, T/C (second compound 10 µM, first compound 0.01 µM): 91.8%
- viability, T/C [31]: 101%
- viability, T/C [32]: 85%
